Measurements taken from patent US9890156B2, “Bicyclic heterocycles as FGFR4 inhibitors” (Incyte Corporation, priority 2015, dated 2018).
Read-outs that look alike come from different tables or passages of the source.

Columns and labels:
FGFR4 = FGFR4 (Homo sapiens (Human), UniProt P22455); assay: FGFR Enzymatic Assay (FRET, peptide phosphorylation), FGFR4
FGFR1 = FGFR1 (Homo sapiens (Human), UniProt P11362); assay: FGFR Enzymatic Assay (FRET, peptide phosphorylation), FGFR1; conditions: read-out: FGFR1 IC50; pre-incubated for 4 hours; ATP 210 uM
Sequence of FGFR1 (P11362 22-822): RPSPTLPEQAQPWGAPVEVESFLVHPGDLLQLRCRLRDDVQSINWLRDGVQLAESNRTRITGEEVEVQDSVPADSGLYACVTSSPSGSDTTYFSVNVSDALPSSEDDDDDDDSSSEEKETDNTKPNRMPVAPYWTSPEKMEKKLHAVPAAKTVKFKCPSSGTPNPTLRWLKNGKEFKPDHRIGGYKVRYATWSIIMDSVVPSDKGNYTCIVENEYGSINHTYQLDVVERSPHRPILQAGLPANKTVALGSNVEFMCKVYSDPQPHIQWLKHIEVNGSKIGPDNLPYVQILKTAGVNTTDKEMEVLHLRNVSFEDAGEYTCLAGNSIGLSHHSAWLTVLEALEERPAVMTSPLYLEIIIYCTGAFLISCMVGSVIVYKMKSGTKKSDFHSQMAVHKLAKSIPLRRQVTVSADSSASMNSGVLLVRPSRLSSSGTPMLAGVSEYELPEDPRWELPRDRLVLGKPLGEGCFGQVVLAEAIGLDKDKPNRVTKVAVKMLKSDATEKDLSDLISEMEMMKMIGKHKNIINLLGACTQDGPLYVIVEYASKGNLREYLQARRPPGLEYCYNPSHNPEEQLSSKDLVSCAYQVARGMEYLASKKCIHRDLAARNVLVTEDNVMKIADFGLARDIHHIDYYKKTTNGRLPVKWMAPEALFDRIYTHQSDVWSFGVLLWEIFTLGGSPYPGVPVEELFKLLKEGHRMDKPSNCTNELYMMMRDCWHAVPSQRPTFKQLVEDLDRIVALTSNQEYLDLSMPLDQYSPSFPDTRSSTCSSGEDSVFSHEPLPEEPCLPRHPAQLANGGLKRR

FGFR3 = FGFR3 (Homo sapiens (Human), UniProt P22607); assay: FGFR Enzymatic Assay (FRET, peptide phosphorylation), FGFR3; type: biochemical; conditions: pre-incubated for 4 hours; ATP 140 μM
Sequence of FGFR3 (P22607 23-806): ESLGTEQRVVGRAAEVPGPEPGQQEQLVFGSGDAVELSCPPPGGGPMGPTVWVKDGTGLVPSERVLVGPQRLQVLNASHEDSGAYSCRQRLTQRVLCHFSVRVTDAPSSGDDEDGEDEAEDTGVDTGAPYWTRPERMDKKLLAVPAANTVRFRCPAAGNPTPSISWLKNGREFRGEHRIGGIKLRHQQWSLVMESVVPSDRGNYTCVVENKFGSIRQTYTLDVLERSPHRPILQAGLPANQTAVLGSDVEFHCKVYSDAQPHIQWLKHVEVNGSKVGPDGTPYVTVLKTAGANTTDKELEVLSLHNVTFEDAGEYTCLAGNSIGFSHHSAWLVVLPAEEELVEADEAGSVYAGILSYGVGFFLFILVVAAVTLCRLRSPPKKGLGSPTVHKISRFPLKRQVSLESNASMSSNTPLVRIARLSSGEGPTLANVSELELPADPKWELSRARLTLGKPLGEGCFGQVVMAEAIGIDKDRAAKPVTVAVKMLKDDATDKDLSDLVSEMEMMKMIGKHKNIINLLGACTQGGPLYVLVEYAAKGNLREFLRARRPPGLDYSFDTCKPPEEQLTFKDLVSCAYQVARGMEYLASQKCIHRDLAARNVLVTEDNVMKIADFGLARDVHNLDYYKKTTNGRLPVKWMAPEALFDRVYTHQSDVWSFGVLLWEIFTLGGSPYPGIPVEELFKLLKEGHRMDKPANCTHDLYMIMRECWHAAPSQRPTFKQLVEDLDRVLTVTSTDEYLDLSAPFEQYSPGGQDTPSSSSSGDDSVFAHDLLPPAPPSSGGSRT

FGFR2 = FGFR2 (Homo sapiens (Human), UniProt P21802); assay: FGFR Enzymatic Assay (FRET, peptide phosphorylation), FGFR2; conditions: read-out: FGFR2 IC50; pre-incubated for 4 hours; ATP 100 uM
Sequence of FGFR2 (P21802 22-821): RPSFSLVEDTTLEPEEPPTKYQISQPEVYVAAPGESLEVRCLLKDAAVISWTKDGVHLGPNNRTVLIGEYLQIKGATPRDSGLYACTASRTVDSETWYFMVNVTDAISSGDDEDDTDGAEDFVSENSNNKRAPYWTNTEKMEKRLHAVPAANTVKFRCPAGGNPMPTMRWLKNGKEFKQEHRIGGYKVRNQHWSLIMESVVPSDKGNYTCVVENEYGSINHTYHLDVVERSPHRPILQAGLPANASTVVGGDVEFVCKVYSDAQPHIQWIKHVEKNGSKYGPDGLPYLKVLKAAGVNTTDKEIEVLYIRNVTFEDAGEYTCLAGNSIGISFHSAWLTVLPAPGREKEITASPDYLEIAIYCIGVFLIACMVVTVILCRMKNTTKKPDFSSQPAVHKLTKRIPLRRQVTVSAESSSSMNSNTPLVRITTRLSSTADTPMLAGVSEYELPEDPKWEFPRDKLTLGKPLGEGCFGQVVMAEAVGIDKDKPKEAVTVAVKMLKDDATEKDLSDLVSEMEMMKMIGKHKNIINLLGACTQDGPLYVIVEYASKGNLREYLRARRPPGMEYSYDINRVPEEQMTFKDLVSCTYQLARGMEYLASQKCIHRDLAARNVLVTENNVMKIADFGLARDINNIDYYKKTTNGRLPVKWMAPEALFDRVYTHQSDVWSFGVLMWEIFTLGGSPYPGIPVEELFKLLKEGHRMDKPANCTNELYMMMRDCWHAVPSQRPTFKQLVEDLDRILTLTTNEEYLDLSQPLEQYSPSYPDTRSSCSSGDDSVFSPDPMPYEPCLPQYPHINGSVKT

[1] = read-out: FGFR4 IC50, pre-incubated for 4 hours, ATP 600 uM

Sequence of FGFR4 (P22455 22-802): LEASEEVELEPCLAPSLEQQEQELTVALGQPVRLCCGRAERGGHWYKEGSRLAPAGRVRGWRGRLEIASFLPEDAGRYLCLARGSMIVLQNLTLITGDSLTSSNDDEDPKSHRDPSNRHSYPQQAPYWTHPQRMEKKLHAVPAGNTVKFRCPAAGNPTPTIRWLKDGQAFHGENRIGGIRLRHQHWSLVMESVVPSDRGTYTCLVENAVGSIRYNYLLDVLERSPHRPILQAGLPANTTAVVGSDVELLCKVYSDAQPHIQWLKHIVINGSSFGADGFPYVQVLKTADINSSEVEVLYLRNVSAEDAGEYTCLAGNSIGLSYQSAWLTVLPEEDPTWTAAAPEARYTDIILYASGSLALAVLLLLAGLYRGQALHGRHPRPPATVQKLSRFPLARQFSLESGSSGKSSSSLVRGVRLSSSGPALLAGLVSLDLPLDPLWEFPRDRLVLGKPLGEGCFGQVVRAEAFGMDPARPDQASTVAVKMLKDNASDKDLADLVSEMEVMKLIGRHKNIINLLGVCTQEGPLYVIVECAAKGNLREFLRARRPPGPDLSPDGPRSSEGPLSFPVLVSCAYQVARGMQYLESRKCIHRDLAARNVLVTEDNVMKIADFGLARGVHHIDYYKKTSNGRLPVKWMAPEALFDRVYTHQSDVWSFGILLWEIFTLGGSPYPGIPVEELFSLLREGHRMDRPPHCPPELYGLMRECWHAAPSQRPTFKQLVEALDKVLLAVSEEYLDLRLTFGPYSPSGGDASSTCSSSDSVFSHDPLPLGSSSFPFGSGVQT

SMILES	IC50 (FGFR4; read-out: FGFR4 IC50, pre-incubated for 5 to 10 minutes, ATP 600 uM)	IC50 (FGFR4; [1])	IC50 (FGFR1)	IC50 (FGFR3)	IC50 (FGFR2)	IC50 (FGFR4)
C=CC(=O)NCc1cc2c(cn1)CN(c1c(F)c(OC)cc(OC)c1F)C(=O)C21CC1 [Example 1, N-{[2′-(2,6-difluoro-3,5-dimethoxyphenyl)-3′-oxo-2′,3′-dihydro-1′H-spiro[cyclopropane-1,4′-[2,7]naphthyridin]-6′-yl]methyl}acrylamide]	< 0.01 µM	< 0.01 µM				
C=CC(=O)NCc1cc2c(cn1)CN(c1c(F)c(OC)cc(OC)c1F)C(=O)N2CC [Example 2, N-((3-(2,6-difluoro-3,5-dimethoxyphenyl)-1-ethyl-2-oxo-1,2,3,4-tetrahydropyrido[4,3-d]pyrimidin-7-yl)methyl)acrylamide]		< 0.01 µM	> 0.2 µM	> 0.2 µM	> 0.2 µM	
C=CC(=O)NCc1cc2c(cn1)CN(c1c(F)c(OC)cc(OC)c1F)C(=O)N2c1cccnc1 [Example 3, N-((3-(2,6-difluoro-3,5-dimethoxyphenyl)-2-oxo-1-(pyridin-3-yl)-1,2,3,4-tetrahydropyrido[4,3-d]pyrimidin-7-yl)methyl)acrylamide]			> 0.2 µM	> 0.2 µM	> 0.2 µM	0.01 to 0.03 µM
C=CC(=O)NCc1ncc2c(n1)C1(CC1)C(=O)N(c1c(F)c(OC)cc(OC)c1F)C2 [Example 4, N-((6′-(2,6-difluoro-3,5-dimethoxyphenyl)-7′-oxo-6′,7′-dihydro-5′H-spiro[cyclopropane-1,8′-pyrido[4,3-d]pyrimidine]-2′-yl)methyl)acrylamide]			> 0.2 µM	> 0.2 µM	> 0.2 µM	0.01 to 0.03 µM
C=CC(=O)NCc1cc2c(cn1)CN(c1c(F)c(OC)cc(OC)c1F)C(=O)C21CCCC1 [Example 5, N-((2′-(2,6-difluoro-3,5-dimethoxyphenyl)-3′-oxo-2′,3′-dihydro-1′H-spiro[cyclopentane-1,4′-[2,7]naphthyridine]-6′-yl)methyl)acrylamide]		< 0.01 µM	> 0.2 µM	> 0.2 µM	> 0.2 µM	
C=CC(=O)NCc1cc2c(cn1)CN(c1c(F)c(OC)cc(OC)c1F)C(=O)N2c1ccccc1 [Example 6, N-((3-(2,6-difluoro-3,5-dimethoxyphenyl)-2-oxo-1-phenyl-1,2,3,4-tetrahydropyrido[4,3-d]pyrimidin-7-yl)methyl)acrylamide]			> 0.2 µM	> 0.2 µM	> 0.2 µM	0.01 to 0.03 µM
C=CC(=O)NCc1cc2c(cn1)CN(c1c(F)c(OC)cc(OC)c1F)C(=O)N2c1ccn(C)n1 [Example 7, N-((3-(2,6-difluoro-3,5-dimethoxyphenyl)-1-(1-methyl-1H-pyrazol-3-yl)-2-oxo-1,2,3,4-tetrahydropyrido[4,3-d]pyrimidin-7-yl)methyl)acrylamide]			> 0.2 µM	> 0.2 µM	> 0.2 µM	0.01 to 0.03 µM
C=CC(=O)NCc1cc2c(cn1)CN(c1c(F)c(OC)cc(OC)c1F)C(=O)N2[C@H]1CCOC1 [Example 8, (S)—N-((3-(2,6-difluoro-3,5-dimethoxyphenyl)-2-oxo-1-(tetrahydrofuran-3-yl)-1,2,3,4-tetrahydropyrido[4,3-d]pyrimidin-7-yl)methyl)acrylamide]		< 0.01 µM	> 0.2 µM	> 0.2 µM	> 0.2 µM	
C=CC(=O)NCc1cc2c(cn1)CN(c1c(F)c(OC)cc(OC)c1F)C(=O)N2C1CC(F)(F)C1 [Example 9, N-((3-(2,6-difluoro-3,5-dimethoxyphenyl)-1-(3,3-difluorocyclobutyl)-2-oxo-1,2,3,4-tetrahydropyrido[4,3-d]pyrimidin-7-yl)methyl)acrylamide]			> 0.2 µM	> 0.2 µM	> 0.2 µM	0.01 to 0.03 µM
C=CC(=O)NCc1cc2c(cn1)CN(c1c(F)c(OC)cc(OC)c1F)C(=O)N2C1CC1 [Example 10, N-((1-cyclopropyl-3-(2,6-difluoro-3,5-dimethoxyphenyl)-2-oxo-1,2,3,4-tetrahydropyrido[4,3-d]pyrimidin-7-yl)methyl)acrylamide]			> 0.2 µM	> 0.2 µM	> 0.2 µM	0.01 to 0.03 µM
C=CC(=O)NCc1cc2c(cn1)CN(c1c(F)c(OC)cc(OC)c1F)C(=O)N2CCOC [Example 11, N-((3-(2,6-difluoro-3,5-dimethoxyphenyl)-1-(2-methoxyethyl)-2-oxo-1,2,3,4-tetrahydropyrido[4,3-d]pyrimidin-7-yl)methyl)acrylamide]		< 0.01 µM	> 0.2 µM	> 0.2 µM	> 0.2 µM	
C=CC(=O)NCc1cc2c(cn1)CN(c1c(F)c(OC)cc(OC)c1F)C(=O)N2CC1CC1 [Example 13, N-((1-(cyclopropylmethyl)-3-(2,6-difluoro-3,5-dimethoxyphenyl)-2-oxo-1,2,3,4-tetrahydropyrido[4,3-d]pyrimidin-7-yl)methyl)acrylamide]		< 0.01 µM	0.03 to 0.2 µM			
C=CC(=O)NCc1cc2c(cn1)CN(c1c(F)c(OC)cc(OC)c1F)C(=O)N2Cc1cccc(F)c1 [Example 16, N-((3-(2,6-difluoro-3,5-dimethoxyphenyl)-1-(3-fluorobenzyl)-2-oxo-1,2,3,4-tetrahydropyrido[4,3-d]pyrimidin-7-yl)methyl)acrylamide]			0.03 to 0.2 µM			0.01 to 0.03 µM
C=CC(=O)NCc1cc2c(cn1)CN(c1c(F)c(OC)cc(OC)c1F)C(=O)N2Cc1cnn(C)c1 [Example 18, N-((3-(2,6-difluoro-3,5-dimethoxyphenyl)-1-((1-methyl-1H-pyrazol-4-yl)methyl)-2-oxo-1,2,3,4-tetrahydropyrido[4,3-d]pyrimidin-7-yl)methyl)acrylamide]		< 0.01 µM	0.03 to 0.2 µM			
C=CC(=O)NCc1cc2c(cn1)CN(c1c(F)c(OC)cc(OC)c1F)C(=O)N2C1CCOCC1 [Example 23, N-((3-(2,6-difluoro-3,5-dimethoxyphenyl)-2-oxo-1-(tetrahydro-2H-pyran-4-yl)-1,2,3,4-tetrahydropyrido[4,3-d]pyrimidin-7-yl)methyl)acrylamide]						0.01 to 0.03 µM
C=CC(=O)NCc1cc2c(cn1)CN(c1c(F)c(OC)cc(OC)c1F)C(=O)N2C1CCCC1 [Example 28, N-((1-cyclopentyl-3-(2,6-difluoro-3,5-dimethoxyphenyl)-2-oxo-1,2,3,4-tetrahydropyrido[4,3-d]pyrimidin-7-yl)methyl)acrylamide]		< 0.01 µM	0.03 to 0.2 µM			
C=CC(=O)NCc1cc2c(cn1)CN(c1c(F)c(OC)cc(OC)c1F)C(=O)N2CC(C)C [Example 29, N-((3-(2,6-difluoro-3,5-dimethoxyphenyl)-1-isobutyl-2-oxo-1,2,3,4-tetrahydropyrido[4,3-d]pyrimidin-7-yl)methyl)acrylamide]		< 0.01 µM	0.03 to 0.2 µM	> 0.2 µM		
C=CC(=O)NCc1cc2c(cn1)CN(c1c(F)c(OC)cc(OC)c1F)C(=O)N2CC1CCC1 [Example 30, N-((1-(cyclobutylmethyl)-3-(2,6-difluoro-3,5-dimethoxyphenyl)-2-oxo-1,2,3,4-tetrahydropyrido[4,3-d]pyrimidin-7-yl)methyl)acrylamide]		< 0.01 µM	0.03 to 0.2 µM	> 0.2 µM		
C=CC(=O)NCc1cc2c(cn1)CN(c1c(F)c(OC)cc(OC)c1F)C(=O)N2CC1CCN(C(=O)OC)CC1 [Example 33, methyl 4-((7-(acrylamidomethyl)-3-(2,6-difluoro-3,5-dimethoxyphenyl)-2-oxo-3,4-dihydropyrido[4,3-d]pyrimidin-1(2H)-yl)methyl)piperidine-1-carboxylate]		< 0.01 µM	> 0.2 µM		> 0.2 µM	
